# From patent US5458874A, “Method of increasing monocyte chemotaxis with CAP37 and monocyte chemotactic portions thereof” (Emory University, priority 1992, dated 1995)
# “Also recorded” adds a separate entry of the source. Read-outs that look alike come from different tables or passages of the source.
# Key:
# [1] = system: Salmonella typhimurium SH9178; assay: Bactericidal assay; format: cell-based; conditions: for bactericidal effect on Salmonella typhimurium SH9178 (in words): FIGS. 12, 13, 15, 1 hour at 37° C.; for % survival with peptide 20-44: Salmonella SH9178
# Experimental: (§1) An overnight culture of Salmonella typhimurium (or other microorganism of interest, if desired) is set up by inoculating one colony in 5 ml of LB Broth (LB Broth consists of 10 g BACTO tryptone (DIFCO), 5 g BACFO yeast (DIFCO) and 5 g NaCl made up to 1 L with endotoxin free water; add 15 g of BACTO agar (DIFCO) to this broth to make LB agar (autoclave). The culture is incubated at 37° C. with rotation. 100 μl of this overnight culture is then transferred to 5 ml of fresh LB Broth and incubated at 37° C. with rotation for 2 hours. Four ml of this log phase culture is then transferred to a sterile cuvette and the optical density is read at […]. Dilutions of the microorganism are then made in tryptone saline (5 g BAOTO tryptone (DIFCO) and 5 g NaCl made up to 1 L with endotoxin free water, pH 5.5) to give a final concentration of 5×10^3 organisms/ml (an O.D. reading of 0.25 at 520 mm is equivalent to 1×10^8 organisms/ml). The microorganisms are placed at 4° C. until ready to be used.
# (§2) The stock solutions of peptides are stored at -20° C. at concentrations of 1 mg/ml of endotoxin-free water. The peptide is diluted out in tryptone saline to the desired concentration. 100 μl of the peptide is added to each well of the microtitre plate (Corning) and then 100 μl of the bacterial suspension (well vortexed) is added. Each assay point is set up in triplicate. 100 μl of a control, consisting of bacteria and tryptone saline (T=0) in the absence of peptide is plated out on LB agar plates. The microliter plate is then incubated at 37° C. for 1 hour. At the end of the incubation time, 100 μl of each sample is plated out on LB agar plates. The T=60 control (consisting of bacteria and tryptone saline in the absence of peptide) is plated out last. The plates are incubated overnight, and the number of colony forming units (CFU) are determined.
# (§3) The % killed is determined as follows: [formula]
# human monocytes = assay: Monocyte chemotaxis, modified Boyden chamber technique; format: cell-based; conditions: chemoattractant conc. 10^-8 M
# Experimental: Chemotaxis was measured using the modified Boyden chamber technique (Snyderman et al.). The leading front method (Zigmond et al.) was used to assess migration of monocytes and lymphocytes through a 8 μm filter (Millipore Corporation, Bedford, Mass.). PMN chemotaxis was measured using a 3 μm filter (Millipore). The purified CAP37 protein (Example 1) used in chemotaxis assays were endotoxin-free as determined by the Limulus Amoebocyte Lysate Assay (Whittaker Bioproducts, Inc., Walkersville, Md.). The dilutions of CAP37 and N-formyl-methionyl-leucyl-phenylalanine (FMLP) were made in Geys buffer (Gibco) containing 2% endotoxin-free bovine serum albumin (BSA). Geys buffer containing 2% BSA served as the negative control, and a […] solution of FMLP as the positive control.
# The chambers were incubated in a humidified atmosphere (6.2% CO2) for 2 hours when testing monocytes and lymphocytes, and for 30 minutes when testing PMNs. The filters were then removed and processed as previously described (Snyderman et al.). The cells were viewed using oil immersion and the distance the cells had migrated into the filter was determined over five different fields on the same slide (Zigmond et al.). Triplicate assays were performed for each experimental point.
# The three peptides were tested for chemotactic activity towards monocytes using the modified Boyden Chamber technique described in Example 2. The monocyte chemotactic activity of each peptide fragment at concentrations ranging from 10^-7 to 10^-13 M was compared with Geys buffer (negative control), FMLP 10^-8 M (positive control) and purified CAP37 10^-9 M (positive control). […] The effect of peptide 1 on monocyte chemotaxis is illustrated in Table 2 while the effect of peptide 3 on monocyte chemotaxis is illustrated in Table 3.
# P. mirabilis Re45 = assay: Bactericidal assay; format: cell-based, Proteus mirabilis; conditions: for % survival with peptide 20-44: P. mirabilis Re45
# Experimental: as §1, §2, §3
# Strep. pyogenes = assay: Bactericidal assay; format: cell-based, Streptococcus pyogenes
# Experimental: as §1
# (§4) The stock solutions of peptides are stored at -20° C. at concentrations of 1 mg/ml of endotoxin-free water. The peptide is diluted out in tryptone saline to the desired concentration. […] The plates are incubated overnight, and the number of colony forming units (CFU) are determined.
# as §3
# S. aureus 502A = assay: Bactericidal assay; format: cell-based, Staphylococcus aureus
# Experimental: as §1, §4, §3
# Ps. aeruginosa = assay: Bactericidal assay; format: cell-based, Pseudomonas aeruginosa; conditions: for % survival with peptide 20-44: Ps. aeruginosa; for bactericidal activity (in words): Pseudomonas
# Experimental: as §1, §2, §3
# L monocytogenes = assay: Bactericidal assay; format: cell-based, Listeria monocytogenes
# Experimental: as §1, §4, §3
# Salmonella LT2 = assay: Bactericidal assay; format: cell-based, Salmonella typhimurium; conditions: for % survival with peptide 20-44: Salmonella LT2; for bactericidal activity (in words): Salmonella typhimurium LT2
# Experimental: as §1, §2, §3
# Salmonella SH7518 = assay: Bactericidal assay; format: cell-based, Salmonella typhimurium; conditions: for % survival with peptide 20-44: Salmonella SH7518
# Experimental: as §1, §2, §3
# Re LPS from Salmonella = assay: Neutralization of LPS activity, limulus amebocyte lysate (LAL) assay, Re LPS; format: biochemical
# Experimental: (§5) Further, the neutralization of LPS activity, as assayed by the limulus amebocyte lysate (LAL) assay, by CAP37 was measured. CAP37 was diluted to the desired concentrations (from 6.2 ng/ml to 500 ng/ml) in geys buffered saline pH 7 (GIBCO). To this wild type LPS (RIBI IMMUNOCHEM) or Re LPS from Salmonella (David Morrison, Kansas Medical Center) was added so that the final concentrations were 0.1, 0.5, 1.0 and 2.0 ng/ml LPS. The tubes were incubated at 37° C. for between 30 to 60 minutes and then assayed in the chromogenic LAL assay, using polymyxin E as a control.
# (§6) As discussed in Example 11, peptides can be screened for lipopolysaccharide neutralizing capacity using the LAL assay also. The CAP37 peptide was diluted to the desired concentrations (from 125 ng/ml to 4000 ng/ml) in geys buffered saline pH 7 (GIBCO). To this is added the wild type LPS (RIBI IMMUNOCHEM) or Re LPS from Salmonella (David Morrison, Kansas Medical Center) so that the final concentration is 0.1, 0.5, and 1.0 ng/ml LPS. The tubes were incubated at 37° C. for between 30 to 60 minutes and then assayed in the chromogenic LAL assay.
# Salmonella SH7426 = assay: Bactericidal assay; format: cell-based
# Experimental: as §1, §2, §3
# wild type LPS = assay: Neutralization of LPS activity, limulus amebocyte lysate (LAL) assay, wild type LPS; format: biochemical
# Experimental: as §5, §6
# [2] = system: gram negative and gram positive bacteria; assay: Bactericidal assay, assortment of bacteria (FIG. 14); format: cell-based
# Experimental: as §1, §4, §3
# E. coli = assay: Bactericidal assay; format: cell-based, Escherichia coli
# Experimental: as §1, §2, §3
# [3] = system: Salmonella typhimurium SH9178; assay: Inhibition of the bactericidal effect by LPS and Lipid A; format: cell-based; conditions: peptide at 200 μg/ml, FIG. 16
# Experimental: To identity, those peptides derived from CAP37 having bacterial LPS-binding activity, the peptide fragments having bactericidal activity were tested to ascertain whether LPS or Lipid A inhibited that activity.
# E. faecalis = assay: Bactericidal assay; format: cell-based, Enterococcus faecalis
# Experimental: as §1, §2, §3
compound,measurement,setting,value
"1-44aa: synthesized peptide fragment, amino acids 1-44 of the mature CAP37 protein (IVGGRKARPRQFPFLASIQNQGRHFCGGALIHARFVMTAASCFQ; UniProt P20160 27-70, looked up, fragment)",bactericidal effect on Salmonella typhimurium SH9178 (in words),[1],active but not to the same extent as peptide 20-44aa
"26-42aa: synthesized peptide fragment, amino acids 26-42 of the mature CAP37 protein (CGGALIHARFVMTAASC; UniProt P20160 52-68, looked up, fragment)",bactericidal effect on Salmonella typhimurium SH9178 (in words),[1],minimal activity
"CSCC[C@H](NC=O)C(=O)N[C@@H](CC(C)C)C(=O)N[C@@H](Cc1ccccc1)C(=O)O [FMLP, N-formyl-methionyl-leucyl-phenylalanine, reference compound]",Distance migrated in μm,human monocytes; Table 2,86.2 μm
same,Distance migrated in μm,human monocytes; Table 3,91.4 μm
"peptide 20-44aa: synthesized peptide fragment, amino acids 20-44 of the mature CAP37 protein (NQGRHFCGGALIHARFVMTAASCFQ)",% survival with peptide 20-44,P. mirabilis Re45; 50 uM,26.8%
same,% survival with peptide 20-44,P. mirabilis Re45; 75 uM,29%
same,bactericidal activity (in words),P. mirabilis Re45; Pr. mirabilis Re45,more active
same,% survival with peptide 20-44,Strep. pyogenes; 50 uM,93.4%
same,% survival with peptide 20-44,Strep. pyogenes; 75 uM,78%
same,% survival with peptide 20-44,S. aureus 502A; 50 uM,58.7%
same,% survival with peptide 20-44,S. aureus 502A; 75 uM,27.5%
same,% survival with peptide 20-44,Ps. aeruginosa; 50 uM,0%
same,% survival with peptide 20-44,Ps. aeruginosa; 75 uM,0%
same,bactericidal activity (in words),Ps. aeruginosa,more active
same,bactericidal activity (in words),Ps. aeruginosa; listed as CAP37 peptide 20-44,most active
same,% survival with peptide 20-44,L monocytogenes; 50 uM,65.8%
same,% survival with peptide 20-44,L monocytogenes; 75 uM,64.6%
same,% survival with peptide 20-44,Salmonella LT2; 50 uM,28.5%
same,% survival with peptide 20-44,Salmonella LT2; 75 uM,1.7%
same,bactericidal activity (in words),Salmonella LT2,more active
same,bactericidal activity (in words),Salmonella LT2; listed as CAP37 peptide 20-44,most active
same,% survival with peptide 20-44,Salmonella SH7518; 50 uM,0.6%
same,% survival with peptide 20-44,Salmonella SH7518; 75 uM,0%
same,bactericidal activity (in words),Salmonella SH7518; Salmonella typhimurium SH7518,most active
same,neutralization of Re LPS activity (LAL assay),Re LPS from Salmonella,more dramatic
same,% survival with peptide 20-44,[1]; 50 uM,36.9%
same,% survival with peptide 20-44,[1]; 75 uM,3.5%
same,bactericidal activity compared with cathepsin G and elastase peptides,"[1]; 100 and 125 μM, FIG. 15",very much more bactericidal
same,bactericidal effect on Salmonella typhimurium SH9178 (in words),[1],most potent antibiotic of these peptides; also recorded: Strongest activity; also recorded: extremely active
same,bactericidal effect on Salmonella typhimurium SH9178 (in words),[1]; listed as CAP37 peptide 20-44,most active
same,% survival with peptide 20-44,Salmonella SH7426; 50 uM,62.5%
same,% survival with peptide 20-44,Salmonella SH7426; 75 uM,31.9%
same,neutralization of wild type LPS activity (LAL assay),wild type LPS,neutralizing its effect to a certain extent
same,antibacterial activity against gram negative and gram positive bacteria (in words),[2],active against a wide assortment of bacteria
same,antibacterial activity against gram negative and gram positive bacteria (in words),[2]; listed as peptide 20-14aa,active against many other bacteria
same,bactericidal activity (in words),E. coli,more active
same,% survival with peptide 20-44,E. coli; 50 uM,24.6%
same,% survival with peptide 20-44,E. coli; 75 uM,0%
same,bactericidal activity (in words),E. coli; listed as CAP37 peptide 20-44,most active
same,inhibition of the bactericidal effect by wild type LPS and Lipid A,[3],"wild type LPS, but more particularly Lipid A, can inhibit the bactericidal effect"
same,bactericidal activity (in words),E. faecalis,more active
same,% survival with peptide 20-44,E. faecalis; 50 uM,16.1%
same,% survival with peptide 20-44,E. faecalis; 75 uM,0%
same,bactericidal activity (in words),E. faecalis; listed as CAP37 peptide 20-44,most active
